Measured values published in the NIST ThermoML archive (doi:10.1021/je800101v).
Numbers after ± are expanded uncertainties.

Key:
[1] = for surface tension liquid-gas: Ring tensiometer; for mass density: 101.33 kPa, Liquid
[2] = xn = mol fraction of the nth substance listed; conditions: Ring tensiometer

## OCCO [1,2-ethanediol]
[1]; 298.15 K
  surface tension liquid-gas: 47.79 ± 0.68 mN/m
[1]; 303.15 K
  surface tension liquid-gas: 47.57 ± 0.67 mN/m
[1]; 308.15 K
  surface tension liquid-gas: 47.25 ± 0.67 mN/m
[1]; 313.15 K
  surface tension liquid-gas: 47.1 ± 0.67 mN/m
[1]; 318.15 K
  surface tension liquid-gas: 46.4 ± 0.66 mN/m

## OCCO [1,2-ethanediol] + CCCCCCO
[2]; 298.15 K, x2 = 0
  surface tension liquid-gas: 47.79 ± 0.68 mN/m
[2]; 303.15 K, x2 = 0
  surface tension liquid-gas: 47.57 ± 0.67 mN/m
[2]; 308.15 K, x2 = 0
  surface tension liquid-gas: 47.25 ± 0.67 mN/m
[2]; 313.15 K, x2 = 0
  surface tension liquid-gas: 47.1 ± 0.67 mN/m
[2]; 318.15 K, x2 = 0
  surface tension liquid-gas: 46.4 ± 0.66 mN/m

## CCCCCCCO [heptan-1-ol]
[1]; 298.15 K
  surface tension liquid-gas: 26.38 ± 0.42 mN/m
[1]; 298.15 K, Vibrating tube method
  mass density: 818.11 ± 0.81 kg/m3

## CCCCCCO [hexan-1-ol]
[1]; 298.15 K
  surface tension liquid-gas: 25.69 ± 0.42 mN/m
  mass density: 815.02 ± 0.98 kg/m3

## CCCCCCO [hexan-1-ol] + OCCO
[2]; 298.15 K, x1 = 0.0429
  surface tension liquid-gas: 32.5 ± 0.52 mN/m
[2]; 298.15 K, x1 = 0.1009
  surface tension liquid-gas: 29.07 ± 0.45 mN/m
[2]; 298.15 K, x1 = 0.2761
  surface tension liquid-gas: 28 ± 0.44 mN/m
[2]; 298.15 K, x1 = 0.3098
  surface tension liquid-gas: 27.9 ± 0.44 mN/m
[2]; 298.15 K, x1 = 0.35
  surface tension liquid-gas: 27.38 ± 0.44 mN/m
[2]; 298.15 K, x1 = 0.3942
  surface tension liquid-gas: 27.32 ± 0.43 mN/m
[2]; 298.15 K, x1 = 0.4468
  surface tension liquid-gas: 27.24 ± 0.43 mN/m
[2]; 298.15 K, x1 = 0.5079
  surface tension liquid-gas: 27.03 ± 0.43 mN/m
[2]; 298.15 K, x1 = 0.5405
  surface tension liquid-gas: 26.82 ± 0.43 mN/m
[2]; 298.15 K, x1 = 0.6061
  surface tension liquid-gas: 26.71 ± 0.43 mN/m
[2]; 298.15 K, x1 = 0.6452
  surface tension liquid-gas: 26.62 ± 0.43 mN/m
[2]; 298.15 K, x1 = 0.6897
  surface tension liquid-gas: 26.51 ± 0.43 mN/m
[2]; 298.15 K, x1 = 0.7407
  surface tension liquid-gas: 26.43 ± 0.43 mN/m
[2]; 298.15 K, x1 = 0.8
  surface tension liquid-gas: 26.34 ± 0.43 mN/m
[2]; 298.15 K, x1 = 0.8333
  surface tension liquid-gas: 26.28 ± 0.43 mN/m
[2]; 298.15 K, x1 = 0.9091
  surface tension liquid-gas: 26.22 ± 0.43 mN/m
[2]; 298.15 K, x1 = 0.9524
  surface tension liquid-gas: 26.16 ± 0.42 mN/m
[2]; 303.15 K, x1 = 0.0429
  surface tension liquid-gas: 32.81 ± 0.49 mN/m
[2]; 303.15 K, x1 = 0.1009
  surface tension liquid-gas: 29.49 ± 0.46 mN/m
[2]; 303.15 K, x1 = 0.2761
  surface tension liquid-gas: 27.47 ± 0.44 mN/m
[2]; 303.15 K, x1 = 0.3098
  surface tension liquid-gas: 27.32 ± 0.43 mN/m
[2]; 303.15 K, x1 = 0.35
  surface tension liquid-gas: 27.12 ± 0.43 mN/m
[2]; 303.15 K, x1 = 0.3942
  surface tension liquid-gas: 26.98 ± 0.43 mN/m
[2]; 303.15 K, x1 = 0.4468
  surface tension liquid-gas: 26.78 ± 0.43 mN/m
[2]; 303.15 K, x1 = 0.5079
  surface tension liquid-gas: 26.48 ± 0.43 mN/m
[2]; 303.15 K, x1 = 0.5405
  surface tension liquid-gas: 26.38 ± 0.42 mN/m
[2]; 303.15 K, x1 = 0.6061
  surface tension liquid-gas: 26.17 ± 0.42 mN/m
[2]; 303.15 K, x1 = 0.6452
  surface tension liquid-gas: 25.97 ± 0.42 mN/m
[2]; 303.15 K, x1 = 0.6897
  surface tension liquid-gas: 25.75 ± 0.42 mN/m
[2]; 303.15 K, x1 = 0.7407
  surface tension liquid-gas: 25.48 ± 0.42 mN/m
[2]; 303.15 K, x1 = 0.8
  surface tension liquid-gas: 25.38 ± 0.41 mN/m
[2]; 303.15 K, x1 = 0.8333
  surface tension liquid-gas: 25.25 ± 0.41 mN/m
[2]; 303.15 K, x1 = 0.9091
  surface tension liquid-gas: 25.16 ± 0.41 mN/m
[2]; 303.15 K, x1 = 0.9524
  surface tension liquid-gas: 25.02 ± 0.41 mN/m
[2]; 308.15 K, x1 = 0.0429
  surface tension liquid-gas: 32.68 ± 0.49 mN/m
[2]; 308.15 K, x1 = 0.1009
  surface tension liquid-gas: 29.34 ± 0.46 mN/m
[2]; 308.15 K, x1 = 0.2761
  surface tension liquid-gas: 27.31 ± 0.43 mN/m
[2]; 308.15 K, x1 = 0.3098
  surface tension liquid-gas: 27.19 ± 0.43 mN/m
[2]; 308.15 K, x1 = 0.35
  surface tension liquid-gas: 26.98 ± 0.43 mN/m
[2]; 308.15 K, x1 = 0.3942
  surface tension liquid-gas: 26.83 ± 0.43 mN/m
[2]; 308.15 K, x1 = 0.4468
  surface tension liquid-gas: 26.63 ± 0.43 mN/m
[2]; 308.15 K, x1 = 0.5079
  surface tension liquid-gas: 26.35 ± 0.42 mN/m
[2]; 308.15 K, x1 = 0.5405
  surface tension liquid-gas: 26.25 ± 0.42 mN/m
[2]; 308.15 K, x1 = 0.6061
  surface tension liquid-gas: 26.01 ± 0.42 mN/m
[2]; 308.15 K, x1 = 0.6452
  surface tension liquid-gas: 25.78 ± 0.42 mN/m
[2]; 308.15 K, x1 = 0.6897
  surface tension liquid-gas: 25.58 ± 0.42 mN/m
[2]; 308.15 K, x1 = 0.7407
  surface tension liquid-gas: 25.3 ± 0.41 mN/m
[2]; 308.15 K, x1 = 0.8
  surface tension liquid-gas: 25.19 ± 0.41 mN/m
[2]; 308.15 K, x1 = 0.8333
  surface tension liquid-gas: 25.17 ± 0.41 mN/m
[2]; 308.15 K, x1 = 0.9091
  surface tension liquid-gas: 24.97 ± 0.41 mN/m
[2]; 308.15 K, x1 = 0.9524
  surface tension liquid-gas: 24.81 ± 0.41 mN/m
[2]; 313.15 K, x1 = 0.0429
  surface tension liquid-gas: 31.55 ± 0.48 mN/m
[2]; 313.15 K, x1 = 0.1009
  surface tension liquid-gas: 29.27 ± 0.45 mN/m
[2]; 313.15 K, x1 = 0.2761
  surface tension liquid-gas: 27.15 ± 0.43 mN/m
[2]; 313.15 K, x1 = 0.3098
  surface tension liquid-gas: 27.02 ± 0.43 mN/m
[2]; 313.15 K, x1 = 0.35
  surface tension liquid-gas: 26.81 ± 0.43 mN/m
[2]; 313.15 K, x1 = 0.3942
  surface tension liquid-gas: 26.68 ± 0.43 mN/m
[2]; 313.15 K, x1 = 0.4468
  surface tension liquid-gas: 26.47 ± 0.43 mN/m
[2]; 313.15 K, x1 = 0.5079
  surface tension liquid-gas: 26.17 ± 0.42 mN/m
[2]; 313.15 K, x1 = 0.5405
  surface tension liquid-gas: 26.07 ± 0.42 mN/m
[2]; 313.15 K, x1 = 0.6061
  surface tension liquid-gas: 25.85 ± 0.42 mN/m
[2]; 313.15 K, x1 = 0.6452
  surface tension liquid-gas: 25.65 ± 0.42 mN/m
[2]; 313.15 K, x1 = 0.6897
  surface tension liquid-gas: 25.38 ± 0.41 mN/m
[2]; 313.15 K, x1 = 0.7407
  surface tension liquid-gas: 25.16 ± 0.41 mN/m
[2]; 313.15 K, x1 = 0.8
  surface tension liquid-gas: 25.02 ± 0.41 mN/m
[2]; 313.15 K, x1 = 0.8333
  surface tension liquid-gas: 24.98 ± 0.41 mN/m
[2]; 313.15 K, x1 = 0.9091
  surface tension liquid-gas: 24.78 ± 0.41 mN/m
[2]; 313.15 K, x1 = 0.9524
  surface tension liquid-gas: 24.61 ± 0.41 mN/m
[2]; 318.15 K, x1 = 0.0429
  surface tension liquid-gas: 31.38 ± 0.52 mN/m
[2]; 318.15 K, x1 = 0.1009
  surface tension liquid-gas: 28.97 ± 0.45 mN/m
[2]; 318.15 K, x1 = 0.2761
  surface tension liquid-gas: 26.91 ± 0.43 mN/m
[2]; 318.15 K, x1 = 0.3098
  surface tension liquid-gas: 26.8 ± 0.43 mN/m
[2]; 318.15 K, x1 = 0.35
  surface tension liquid-gas: 26.63 ± 0.43 mN/m
[2]; 318.15 K, x1 = 0.3942
  surface tension liquid-gas: 26.47 ± 0.43 mN/m
[2]; 318.15 K, x1 = 0.4468
  surface tension liquid-gas: 26.31 ± 0.42 mN/m
[2]; 318.15 K, x1 = 0.5079
  surface tension liquid-gas: 25.97 ± 0.42 mN/m
[2]; 318.15 K, x1 = 0.5405
  surface tension liquid-gas: 25.88 ± 0.42 mN/m
[2]; 318.15 K, x1 = 0.6061
  surface tension liquid-gas: 25.67 ± 0.42 mN/m
[2]; 318.15 K, x1 = 0.6452
  surface tension liquid-gas: 25.48 ± 0.42 mN/m
[2]; 318.15 K, x1 = 0.6897
  surface tension liquid-gas: 25.21 ± 0.41 mN/m
[2]; 318.15 K, x1 = 0.7407
  surface tension liquid-gas: 24.99 ± 0.41 mN/m
[2]; 318.15 K, x1 = 0.8
  surface tension liquid-gas: 24.81 ± 0.41 mN/m
[2]; 318.15 K, x1 = 0.8333
  surface tension liquid-gas: 24.75 ± 0.41 mN/m
[2]; 318.15 K, x1 = 0.9091
  surface tension liquid-gas: 24.56 ± 0.41 mN/m
[2]; 318.15 K, x1 = 0.9524
  surface tension liquid-gas: 24.45 ± 0.4 mN/m

## CCCCCO [pentan-1-ol]
[1]; 298.15 K
  surface tension liquid-gas: 24.89 ± 0.41 mN/m
  mass density: 811.1 ± 0.99 kg/m3
